What was measured:
[1] = tested on: Puccinia recondita var. tritici; assay: wheat leaf rust control on wheat seedlings; type: in vivo; conditions: for pest or weed control at 100 ppm: sprayed day before inoculation
Method in brief: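 Compounds at 100 ppm (6% acetone, 250 ppm polyhydric alcohol ester surfactant in water) sprayed to run-off on wheat seedlings; inoculated next day with P. recondita spores. Kept 24 h at saturated humidity, 20°, then 7 days in growth room before rust pustule rating.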

[2] = tested on: Erysiphe cichoracearum; assay: cucumber powdery mildew control on cucumber seedlings; type: in vivo; conditions: Golovinomyces cichoracearum, 168 h, 7 days
Method in brief: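 Compounds at 100 ppm in water with 6% acetone and 250 ppm TREM 014 surfactant, sprayed to run-off on cucumber seedlings. Inoculation with Erysiphe cichoracearum spores the following day; disease rated after 7 days in a growth room against untreated plants.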

[3] = tested on: Venturia inaequalis; assay: apple scab control on apple seedlings; type: in vivo; conditions: Venturia inaequalis
Method in brief: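 Apple seedlings sprayed to run-off with 100 ppm compound suspension (6% acetone, 250 ppm TREM 014 surfactant). Inoculated next day with Venturia inaequalis spores; 24 hours at 20° in saturated humidity, then 10-12 days in growth room. Scab lesions compared with untreated plants.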

[4] = tested on: Helminthosporium maydis; assay: southern corn leaf blight control on corn seedlings; type: in vivo; conditions: Bipolaris maydis, 168 h
Method in brief: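 Corn seedlings were sprayed to run-off with 100 ppm compound (6% acetone, 250 ppm TREM 014), inoculated next day with H. maydis spores, then kept 24 h at 20° in saturated humidity and 7 more days in a growth room. Lesions were rated as disease score.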

[5] = tested on: Cercospora arachidicola; assay: peanut early leafspot control on peanut seedlings; type: in vivo; conditions: Mycosphaerella arachidis, 336 h
Method in brief: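 Compounds dissolved in acetone (6% of final volume) and suspended at 100 ppm in water with 250 ppm TREM 014, sprayed to run-off on seedlings. Cercospora arachidicola inoculated next day; 24 h saturated humidity at 27°, then 14 days growth room before disease and leafspot rating.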

[6] = tested on: Uromyces phaseoli; assay: bean rust control on bean seedlings; type: in vivo; conditions: 20 ppm
Description: Compounds of the previous examples were again dissolved in acetone in an amount equal to 6% of the final volume and then suspended at a concentration of 20 ppm in purified water containing 250 ppm of the surfactant TREM 014 (polyhydric alcohol esters). This suspension was sprayed to the point of run-off on bean seedlings. The following day, the plants were inoculated with a spore suspension of the fungus Uromyces phaseoli, causal agent of bean rust, and incubated in a saturated humidity chamber at 20° for 24 hours and then in a greenhouse for 7 days. Disease ratings were then made. Treated plants from successful treatments had few or no rust pustules in contrast to untreated plants which were covered with rust pustules.

[7] = tested on: Monilinia fructicola; assay: stone fruit brown rot colony growth inhibition on canned peach halves; type: cell-based; conditions: 120 h, dipped 3 minutes, five days, percent growth inhibition of colonies, read-out: % Control Brown Rot
Excerpt: Several compounds of the previous examples were again dissolved in acetone in an amount equal to 5% of the final volume and then suspended at a concentration of 100 ppm in purified water containing 700 ppm of the surfactant TREM 014 (polyhydric alcohol esters). Canned peach halves were dipped in this suspension for three minutes and then placed to air dry in sterile containers. Upon drying, the peach halves were inoculated with two pieces of Monilinia fructicola, causal agent of stone fruit brown rot, mycelium and then incubated in the sterile containers for five days. At that time the radii of the colonies' growth were measured on each peach. […] Percent disease contol (percent growth inhibition of colonies on treated peaches as compared to that of colonies on untreated peaches) is expressed in the table below.

[8] = tested on: Rhizoctonia solani; assay: rice sheath blight control on rice seedlings; type: in vivo; conditions: Rhizoctonia solani, 168 h, 7 days
Method in brief: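 Rice seedlings sprayed to run-off with 100 ppm compound suspension (6% acetone, 250 ppm surfactant), then inoculated next day with bran/mycelium of Rhizoctonia solani. After 7 days in a growth room, sheath blight disease was rated.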

[9] = tested on: Pyricularia oryzae; assay: whole plant or invertebrate; type: in vivo; conditions: 168 h, read-out: % Control of Rice Blast
[10] = tested on: Phytophthora infestans; assay: whole plant or invertebrate; type: in vivo; conditions: Phytophthora infestans, in Solanum lycopersicum, 168 h, read-out: % Control of Tomato Late Blight
[11] = tested on: 5 Phytophthora species; type: cell-based; conditions: 200.0 ppm in agar, 22° C., 6 days; controlled = radial growth 1 mm or less
[12] = tested on: Pythium aphanadermatum; assay: Pythium control on coated cotton seeds; type: in vivo; conditions: 168 h, 2 gm/kg seed, 1 week
Excerpt: Several compounds of the previous examples were incorporated into a proprietary formulation and used to coat cotton seeds at a rate of 2 gm/kg seed. After being thoroughly coated, the seeds were allowed to air dry at room temperature. The cotton seeds were then planted into soil amended with the fungus Pythium aphanadermatum, sand, and corn meal at a rate sufficient to kill most untreated seeds. The seeds were held at room temperature for 1 week, after which time disease ratings were made.

[13] = tested on: Pythium aphanadermatum; assay: Pythium control on coated corn seeds; type: in vivo; conditions: 504 h, 2 gm/kg seed, 49° F. 2 weeks then 70° F. 1 week
Description: Several compounds of the previous examples were incorporated into a proprietary formulation and used to coat corn seeds at a rate of 2 gm/kg seed. After being thoroughly coated, the seeds were allowed to air dry at room temperature. The seeds were then planted into soil amended with a mixture of the fungus Pythium aphanadermatum, sand, and corn meal at a rate sufficient to kill most untreated seeds. The seeds were held at 49° F. for 2 weeks and then at 70° F. for 1 additional week. After this time disease ratings were made.

[14] = tested on: Erysiphe graminis; assay: barley powdery mildew control on barley seedlings; type: in vivo; conditions: Blumeria graminis, 168 h; for pest or weed control at 100 ppm: 7 days
Description: Several compounds of the previous examples were again dissolved in acetone in an amount equal to 6% of the final volume and then suspended at a concentration of 100 ppm in purified water containing 250 ppm of the surfactant TREM 014 (polyhydric alcohol esters). This suspension was sprayed to the point of run-off on barley seedlings. The following day, the plants were inoculated with a spore suspension of the fungus Erysiphe graminis, causal agent of barley powdery mildew, and incubated in a growth room for 7 days. Disease ratings were then made. Treated plants had little or no powdery mildew in contrast to untreated plants which were covered with powdery mildew.

[15] = tested on: cucumber seedlings; assay: phytotoxicity on cucumber seedlings; type: in vivo; parameters: key: G: growth reduction; H: hormonal effects; conditions: 100 ppm
[16] = tested on: apple seedlings; assay: phytotoxicity on apple seedlings; type: in vivo; parameters: key: B: Phytotoxic burn; conditions: 100 ppm
Description: Compounds of this invention were dissolved in acetone in an amount equal to 6% of the final volume and then suspended at a concentration of 100 ppm in purified water containing 250 ppm of the surfactant TREM 014 (polyhydric alcohol esters). This suspension was sprayed to the point of run-off on apple seedlings. The following day, the plants were inoculated with a spore suspension of the fungus Venturia inaequalis, causal agent of apple scab, and incubated in a saturated humidity chamber at 20° for 24 hours and then in a growth room for an additional 10-12 days. Treated plants from successful treatments had few or no apple scab lesions when compared to untreated plants which were covered with scab lesions.

[17] = tested on: peanut seedlings; assay: phytotoxicity on peanut seedlings; type: in vivo; parameters: key: B: Phytotoxic burn; conditions: 100 ppm
Description: Compounds of the previous examples were again dissolved in acetone in an amount equal to 6% of the final volume and then suspended at a concentration of 100 ppm in purified water containing 250 ppm of the surfactant TREM 014 (polyhydric alcohol esters). This suspension was sprayed to the point of run-off on peanut seedlings. The following day, the plants were inoculated with a spore suspension of Cercospora arachidicola, causal agent of peanut early leafspot, and incubated in a saturated humidity chamber at 27° for 24 hours and then in a growth room for an additional 14 days, when disease ratings were made. Treated plants from successful treatments had few or no leafspots while the untreated plants had numerous leafspots on each leaf.

## C[Si](C)(Cn1ccnc1)c1ccc(-c2ccccc2)cc1 [(1,1'-Biphenyl-4-yl)dimethyl(1H-imidazol-1-ylmethyl)silane]
[1]
  pest or weed control at 100 ppm: 100%
[2]
  pest or weed control at 100 ppm: 100%
[3]
  pest or weed control at 100 ppm: 80%
[4]
  pest or weed control at 100 ppm: 90%
[5]
  pest or weed control at 100 ppm: 100%
[6]
  % Control Bean Rust: 100%
[7]
  inhibition of growth at 100 ppm: 83%
[8]
  pest or weed control at 100 ppm: 0%
[9]
  pest or weed control at 100 ppm: 0%
[10]
  pest or weed control at 100 ppm: 50%
[11]
  No. of 5 Phytophthora species controlled in vitro: 3
[12]
  pest or weed control at 2000 mg/kg: 18%
[13]
  pest or weed control at 2000 mg/kg: 32%

## C[Si](C)(Cn1ccnc1)c1ccc(Oc2ccccc2)cc1 [(1H-Imidazol-1-ylmethyl)dimethyl(4-phenoxyphenyl)silane]
[1]
  pest or weed control at 100 ppm: 60%
[2]
  pest or weed control at 100 ppm: 100%
[14]
  pest or weed control at 100 ppm: 0%
[3]
  pest or weed control at 100 ppm: 100%
[4]
  pest or weed control at 100 ppm: 0%
[5]
  pest or weed control at 100 ppm: 0%
[7]
  inhibition of growth at 100 ppm: 80%
[8]
  pest or weed control at 100 ppm: 70%
[9]
  pest or weed control at 100 ppm: 70%
[10]
  pest or weed control at 100 ppm: 80%
[11]
  No. of 5 Phytophthora species controlled in vitro: 4
[12]
  pest or weed control at 2000 mg/kg: 0%
[13]
  pest or weed control at 2000 mg/kg: 5%

## C[Si](C)(Cn1ccnc1)c1ccc(Cl)cc1Cl [(2,4-Dichlorophenyl)dimethyl(1H-imidazol-1-ylmethyl)silane]
[1]
  pest or weed control at 100 ppm: 90%
[2]
  pest or weed control at 100 ppm: 100%
[14]
  pest or weed control at 100 ppm: 100%
[3]
  pest or weed control at 100 ppm: 100%
[4]
  pest or weed control at 100 ppm: 70%
[5]
  pest or weed control at 100 ppm: 100%
[6]
  % Control Bean Rust: 83%
[7]
  inhibition of growth at 100 ppm: 100%
[8]
  pest or weed control at 100 ppm: 0%
[9]
  pest or weed control at 100 ppm: 0%
[10]
  pest or weed control at 100 ppm: 0%
[11]
  No. of 5 Phytophthora species controlled in vitro: 5
[15]
  Phytotoxicity (growth reduction or hormonal effects): H

## CCCC[Si](C)(Cn1ccnc1)c1ccc(Cl)cc1Cl (stereo not drawn) [Butyl(2,4-dichlorophenyl)(1H-imidazol-1-ylmethyl)methylsilane]
[1]
  pest or weed control at 100 ppm: 100%
[2]
  pest or weed control at 100 ppm: 100%
[3]
  pest or weed control at 100 ppm: 100%
[4]
  pest or weed control at 100 ppm: 80%
[5]
  pest or weed control at 100 ppm: 100%
[8]
  pest or weed control at 100 ppm: 90%
[9]
  pest or weed control at 100 ppm: 0%
[10]
  pest or weed control at 100 ppm: 0%
[15]
  Phytotoxicity (growth reduction or hormonal effects): G
[16]
  Phytotoxic burn: B

## C[Si](C)(Cn1ccnc1)C1CCCCC1 [Cyclohexyl(dimethyl(1H-imidazol-1-ylmethyl)silane]
[1]
  pest or weed control at 100 ppm: 0%
[2]
  pest or weed control at 100 ppm: 100%
[3]
  pest or weed control at 100 ppm: 100%
[4]
  pest or weed control at 100 ppm: 50%
[5]
  pest or weed control at 100 ppm: 0%
[8]
  pest or weed control at 100 ppm: 0%
[15]
  Phytotoxicity (growth reduction or hormonal effects): G
[16]
  Phytotoxic burn: B

## C[Si](C)(Cn1ccnc1)c1ccc(C(F)(F)F)cc1 [Dimethyl(1H-imidazol-1-ylmethyl)(4-trifluoromethylphenyl)silane]
[1]
  pest or weed control at 400 ppm: 100%
[2]
  pest or weed control at 100 ppm: 100%
[14]
  pest or weed control at 100 ppm: 100%
[3]; 400 ppm
  pest or weed control at 400 ppm: 60%
[5]
  pest or weed control at 100 ppm: 36%
[17]
  Phytotoxic burn: B

## C[Si](C)(Cn1ccnc1)c1ccc(F)cc1 [Dimethyl(4-fluorophenyl)(1H-imidazol-1-ylmethyl)silane]
[1]
  pest or weed control at 100 ppm: 80%
[2]
  pest or weed control at 100 ppm: 100%
[3]
  pest or weed control at 100 ppm: 0%
[4]
  pest or weed control at 100 ppm: 0%
[5]
  pest or weed control at 100 ppm: 60%
[8]
  pest or weed control at 100 ppm: 0%
[9]
  pest or weed control at 100 ppm: 0%
[10]
  pest or weed control at 100 ppm: 0%
[12]
  pest or weed control at 2000 mg/kg: 0%
[13]
  pest or weed control at 2000 mg/kg: 15%
[15]
  Phytotoxicity (growth reduction or hormonal effects): G
[17]
  Phytotoxic burn: B

## CCCCCCCCCCCC[Si](C)(C)Cn1ccnc1 [Dodecyl(dimethyl)(1H-imidazol-1-ylmethyl)silane]
[1]
  pest or weed control at 400 ppm: 80%
[2]
  pest or weed control at 100 ppm: 55%
[14]; 200 ppm
  pest or weed control at 200 ppm: 100%
[3]
  pest or weed control at 100 ppm: 0%
[4]
  pest or weed control at 100 ppm: 0%
[16]
  Phytotoxic burn: B

— patent US4496551A (priority 1983, dated 1985)
